In ChEMBL document CHEMBL3632622, “Synthesis and biological evaluation of novel N-phenyl ureidobenzenesulfonate derivatives as potential anticancer agents. Part 2. Modulation of the ring B” (Eur J Med Chem, 2015):
pIC50: −log10 of the molar value. Blank lines part the entries; values can stand above or below the compound they belong to. Activity calls are given as the source filed them. The rule behind the calls is not given here.

What was measured:
[1] = tested on: M21; assay: Cell cycle arrest in human M21 cells assessed as accumulation at G0/G1 phase at 5.9 uM after 24 hrs by DAPI staining-based flow cytometry (reference value: 65.1%); type: functional
[2] = tested on: HT-29; assay: Antiproliferative activity against human HT-29 cells assessed as growth inhibition incubated for 48 hrs by sulforhodamine B assay; type: functional, cell-based; conditions: HT-29, 48 h
[3] = tested on: M21; assay: Cell cycle arrest in human M21 cells assessed as accumulation at subG1 phase at 5.9 uM after 24 hrs by DAPI staining-based flow cytometry (reference value: 1.5%); type: functional
[4] = tested on: M21; assay: Cell cycle arrest in human M21 cells assessed as accumulation at G2/M phase at 5.9 uM after 24 hrs by DAPI staining-based flow cytometry (reference value: 16%); type: functional
[5] = tested on: M21; assay: Induction DNA DSBs in human M21 cells assessed as increase in gamma H2AX foci at 15 uM incubated for 24 hrs by DAPI staining based immunocytochemistry; type: cell-based
[6] = tested on: M21; assay: Cell cycle arrest in human M21 cells assessed as accumulation at S phase at 5.9 uM after 24 hrs by DAPI staining-based flow cytometry (reference value: 17.4%); type: functional
[7] = tested on: MCF7; assay: Antiproliferative activity against human MCF7 cells assessed as growth inhibition incubated for 48 hrs by sulforhodamine B assay; type: functional, cell-based; conditions: MCF7, 48 h
[8] = Antiproliferative activity against human HT1080 cells assessed as growth inhibition incubated for 48 hrs by sulforhodamine B assay; type: functional, cell-based, HT-1080; conditions: Homo sapiens, HT-1080, 48 h; read-out: IC50
[9] = tested on: M21; assay: Antiproliferative activity against human M21 cells assessed as growth inhibition incubated for 48 hrs by sulforhodamine B assay; type: functional, cell-based; conditions: M21, 48 h
[10] = tested on: M21; assay: Cell cycle arrest in human M21 cells assessed as accumulation at G2/M phase at 2.6 uM after 24 hrs by DAPI staining-based flow cytometry (reference value: 16%); type: functional
[11] = tested on: M21; assay: Cell cycle arrest in human M21 cells assessed as accumulation at G0/G1 phase at 2.6 uM after 24 hrs by DAPI staining-based flow cytometry (reference value: 65.1%); type: functional
[12] = tested on: M21; assay: Cell cycle arrest in human M21 cells assessed as accumulation at subG1 phase at 2.6 uM after 24 hrs by DAPI staining-based flow cytometry (reference value: 1.5%); type: functional
[13] = tested on: M21; assay: Cell cycle arrest in human M21 cells assessed as accumulation at S phase at 2.6 uM after 24 hrs by DAPI staining-based flow cytometry (reference value: 17.4%); type: functional
[14] = tested on: M21; assay: Cell cycle arrest in human M21 cells assessed as accumulation at S phase at 5.4 uM after 24 hrs by DAPI staining-based flow cytometry (reference value: 17.4%); type: functional
[15] = tested on: M21; assay: Cell cycle arrest in human M21 cells assessed as accumulation at G2/M phase at 5.4 uM after 24 hrs by DAPI staining-based flow cytometry (reference value: 16%); type: functional
[16] = tested on: M21; assay: Cell cycle arrest in human M21 cells assessed as accumulation at subG1 phase at 5.4 uM after 24 hrs by DAPI staining-based flow cytometry (reference value: 1.5%); type: functional
[17] = tested on: M21; assay: Induction DNA DSBs in human M21 cells assessed as increase in gamma H2AX foci at 5.4 uM incubated for 24 hrs by DAPI staining based immunocytochemistry; type: cell-based
[18] = tested on: M21; assay: Cell cycle arrest in human M21 cells assessed as accumulation at G0/G1 phase at 5.4 uM after 24 hrs by DAPI staining-based flow cytometry (reference value: 65.1%); type: functional
[19] = tested on: M21; assay: Cell cycle arrest in human M21 cells assessed as accumulation at subG1 phase at 6.5 uM after 24 hrs by DAPI staining-based flow cytometry (reference value: 1.5%); type: functional
[20] = tested on: M21; assay: Cell cycle arrest in human M21 cells assessed as accumulation at G0/G1 phase at 6.5 uM after 24 hrs by DAPI staining-based flow cytometry (reference value: 65.1%); type: functional
[21] = tested on: M21; assay: Cell cycle arrest in human M21 cells assessed as accumulation at G2/M phase at 6.5 uM after 24 hrs by DAPI staining-based flow cytometry (reference value: 16%); type: functional
[22] = tested on: M21; assay: Cell cycle arrest in human M21 cells assessed as accumulation at S phase at 6.5 uM after 24 hrs by DAPI staining-based flow cytometry (reference value: 17.4%); type: functional
[23] = tested on: M21; assay: Cell cycle arrest in human M21 cells assessed as accumulation at S phase at 1.5 uM after 24 hrs by DAPI staining-based flow cytometry (reference value: 17.4%); type: functional
[24] = tested on: M21; assay: Induction DNA DSBs in human M21 cells assessed as increase in gamma H2AX foci at 0.75 uM incubated for 24 hrs by DAPI staining based immunocytochemistry; type: cell-based
[25] = tested on: M21; assay: Cell cycle arrest in human M21 cells assessed as accumulation at G2/M phase at 1.5 uM after 24 hrs by DAPI staining-based flow cytometry (reference value: 16%); type: functional
[26] = tested on: M21; assay: Cell cycle arrest in human M21 cells assessed as accumulation at subG1 phase at 1.5 uM after 24 hrs by DAPI staining-based flow cytometry (reference value: 1.5%); type: functional
[27] = tested on: M21; assay: Cell cycle arrest in human M21 cells assessed as accumulation at G0/G1 phase at 1.5 uM after 24 hrs by DAPI staining-based flow cytometry (reference value: 65.1%); type: functional
[28] = tested on: M21; assay: Cell cycle arrest in human M21 cells assessed as accumulation at G2/M phase at 10 uM after 24 hrs by DAPI staining-based flow cytometry (reference value: 16%); type: functional
[29] = tested on: M21; assay: Cell cycle arrest in human M21 cells assessed as accumulation at subG1 phase at 10 uM after 24 hrs by DAPI staining-based flow cytometry (reference value: 1.5%); type: functional
[30] = tested on: M21; assay: Induction DNA DSBs in human M21 cells assessed as increase in gamma H2AX foci at 10 uM incubated for 24 hrs by DAPI staining based immunocytochemistry; type: cell-based
[31] = tested on: M21; assay: Cell cycle arrest in human M21 cells assessed as accumulation at S phase at 10 uM after 24 hrs by DAPI staining-based flow cytometry (reference value: 17.4%); type: functional
[32] = tested on: M21; assay: Cell cycle arrest in human M21 cells assessed as accumulation at G0/G1 phase at 10 uM after 24 hrs by DAPI staining-based flow cytometry (reference value: 65.1%); type: functional

Compound: O=C(NCCCl)Nc1ccc(S(=O)(=O)Oc2ccccc2[N+](=O)[O-])cc1
- Activity [1]: 32.5%
- pIC50 [2]: 5.24
- Activity [3]: 1.4%
- Activity [4]: 23.1%
- Activity [5]: Active
- Activity [6]: 43%
- pIC50 [7]: 5.13
- pIC50 [8]: 5.62
- pIC50 [9]: 5.41

Compound: CCCc1ccccc1OS(=O)(=O)c1ccc(NC(=O)NCCCl)cc1
- pIC50 [2]: 5.72
- Activity [10]: 25.7%
- pIC50 [7]: 5.68
- Activity [11]: 36%
- pIC50 [8]: 5.72
- Activity [12]: 1.3%
- Activity [13]: 37%
- pIC50 [9]: 5.89

Compound: Cc1ccccc1OS(=O)(=O)c1ccc(NC(=O)NCCCl)cc1
- Activity [14]: 39%
- pIC50 [2]: 5.31
- Activity [15]: 19.5%
- Activity [16]: 2.3%
- Activity [17]: Active
- pIC50 [7]: 5.21
- pIC50 [8]: 5.80
- pIC50 [9]: 5.35
- Activity [18]: 39.2%

Compound: O=C(NCCCl)Nc1ccc(S(=O)(=O)Oc2ccccc2Cl)cc1
- Activity [28]: 21%
- pIC50 [2]: 5.46
- Activity [29]: 1.9%
- Activity [30]: Active
- Activity [31]: 33.3%
- pIC50 [7]: 5.38
- Activity [32]: 43.8%
- pIC50 [8]: 5.96
- pIC50 [9]: 5.68

Compounds with a higher pIC50 [2], results first:

- pIC50 [2]: 5.82
- pIC50 [7]: 5.77
Compound: O=C(NCCCl)Nc1ccc(S(=O)(=O)Oc2c(Cl)cc(Cl)cc2Cl)cc1
- Activity [19]: 8.5%
- Activity [20]: 11.6%
- Activity [21]: 72.6%
- pIC50 [8]: 5.82
- pIC50 [9]: 5.89
- Activity [22]: 7.3%

- pIC50 [2]: 6.64
- pIC50 [7]: 7.62
Compound: CC[C@@]1(O)C(=O)OCc2c1cc1n(c2=O)Cc2cc3c(CN(C)C)c(O)ccc3nc2-1 [TOPOTECAN]
- Activity [23]: 31.8%
- Activity [24]: Active
- Activity [25]: 60.4%
- Activity [26]: 1.4%
- Activity [27]: 6.4%
- pIC50 [8]: 6.74
- pIC50 [9]: 5.85
